Data taken from PMC3699461, “Ground State Destabilization by Anionic Nucleophiles Contributes to the Activity of Phosphoryl Transfer Enzymes” (PLoS Biology, 2013).
Several values for one entry are separate records, joined by “and”; a condition that tells them apart may be missing. Equal values may be shown once. Read-outs that look alike come from different tables or passages of the source.

How the values were obtained:
[1] = cited from earlier work
WT AP [2] = target: T1, WT AP (Escherichia coli, UniProt P00634); conditions: 0.1–10 µM WT AP, standard buffer
T1 sequence (P00634 22-471): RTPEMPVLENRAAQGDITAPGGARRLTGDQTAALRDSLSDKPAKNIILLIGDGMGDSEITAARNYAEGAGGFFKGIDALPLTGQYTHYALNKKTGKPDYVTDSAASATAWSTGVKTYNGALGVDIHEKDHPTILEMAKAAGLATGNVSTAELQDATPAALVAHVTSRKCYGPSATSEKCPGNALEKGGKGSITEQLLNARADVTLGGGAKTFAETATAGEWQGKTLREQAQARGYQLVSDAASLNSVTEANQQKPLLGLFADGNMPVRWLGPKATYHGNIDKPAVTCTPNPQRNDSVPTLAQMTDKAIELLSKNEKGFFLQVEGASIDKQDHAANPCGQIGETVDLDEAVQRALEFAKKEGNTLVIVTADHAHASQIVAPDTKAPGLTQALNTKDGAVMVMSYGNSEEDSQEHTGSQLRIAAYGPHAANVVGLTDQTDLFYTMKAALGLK
From the text: (§1) The following buffers were used over the indicated pH ranges: NaAcetate (4.5–5.5), NaMES (5.5), NaMaleate (6.0–6.5), Tris•HCl (7.0–7.5), NaMOPS (7.0–8.0), NaCHES (8.5–9.0), and NaCAPS (10–10.5).
(§2) The retentate is expected to contain both free and bound ^32Pi. […] Scintillation counting of both the filtrate and retentate was used to measure the concentrations of free and bound ^32Pi at the various AP concentrations, and the fraction ^32Pi bound dependence on the AP concentration was used to determine dissociation constants using a modified binding equation, f bound = (C)×([AP]/([AP]+K [drawing 148] ))+(1–C), where C allows for background levels of apparent binding in the absence of protein.
(§3) To measure the uptake of ^32Pi by the AP sample, the fraction of ^32Pi bound was measured over time starting just after the addition of ^32Pi to the AP samples.

WT Stp1 = WT Stp1 (Schizosaccharomyces pombe, UniProt P41893); conditions: pH 6.0, protein up to 500 µM
WT Stp1, sequence (P41893 whole entry): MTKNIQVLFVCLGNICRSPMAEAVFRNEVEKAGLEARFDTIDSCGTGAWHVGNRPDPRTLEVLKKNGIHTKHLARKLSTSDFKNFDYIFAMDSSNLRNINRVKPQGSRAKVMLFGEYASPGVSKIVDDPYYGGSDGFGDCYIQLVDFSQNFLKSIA
From the text: The buffer conditions, pH, and temperature were the same as those for the WT Stp1 kinetic inhibition assays (Figure S14A).
(EPS) Click here for additional data file.

[3] = target: AP with mutation of Arg166; conditions: read-out: Pi binding constant of Arg166 mutants; pH 8.0; cited from earlier work
S102G/R166S AP [4] = target: T2, S102G/R166S AP (Escherichia coli, UniProt P00634, R188S/S124G); conditions: Table 2
T2 sequence (P00634 23-471 S124G/R188S): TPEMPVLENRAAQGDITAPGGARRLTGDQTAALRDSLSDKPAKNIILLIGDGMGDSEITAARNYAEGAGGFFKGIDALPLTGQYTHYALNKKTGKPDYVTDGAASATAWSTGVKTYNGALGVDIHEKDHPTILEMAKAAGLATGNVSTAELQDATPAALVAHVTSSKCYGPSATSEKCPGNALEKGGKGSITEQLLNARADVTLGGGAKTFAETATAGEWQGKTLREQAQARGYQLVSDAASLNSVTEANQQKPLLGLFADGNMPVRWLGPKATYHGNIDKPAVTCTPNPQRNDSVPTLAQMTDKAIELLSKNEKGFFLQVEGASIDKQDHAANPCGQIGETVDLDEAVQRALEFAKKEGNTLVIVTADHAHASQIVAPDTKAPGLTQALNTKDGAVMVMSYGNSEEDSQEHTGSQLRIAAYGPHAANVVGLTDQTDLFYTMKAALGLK
From the text: as §1, §2, §3

S102G AP = S102G AP (Escherichia coli, UniProt P00634, S124G); conditions: for trianion versus dianion differential affinity: S102G AP, Table 2
S102G AP, sequence (P00634 23-471 S124G): as the sequence (P00634 23-471 S124G/R188S) above, with S166R counted along it
From the text: as §2, §3

R166S AP = R166S AP (Escherichia coli, UniProt P00634, R188S); conditions: fit of Figure 4B, two-state model
R166S AP, sequence (P00634 23-471 R188S): as the sequence (P00634 23-471 S124G/R188S) above, with G102S counted along it
Method: The tungstate affinity for R166S AP was determined by inhibition of pNPP hydrolysis as was done previously with WT AP [20], but under the standard buffer conditions used in this work. A range of tungstate concentrations was used from at least 5-fold below and above the inhibition constant at each pH.

S102G/R166S AP [5] = target: T2, S102G/R166S AP; conditions: fit of Figure 4B, two-state model
Method: (§4) After this first incubation, trace ^32Pi was added and the sample was incubated further to allow ^32Pi binding to complete.

WT AP [6] = target: T1, WT AP
Method: as §4
A competition-binding assay at pH 8.0 for WT AP (see Materials and Methods for assay details) under the standard buffer conditions.

[7] = ionic strength I = 0.1 for the value 6.9; cited from earlier work
WT AP [8] = target: T1, WT AP; conditions: cited from earlier work

Compound: Nc1ncnc2c1ncn2[C@@H]1O[C@H](COP(=O)(O)OP(=O)(O)OP(=O)(O)O)[C@@H](O)[C@H]1O [ATP]
- kuncat, uncatalyzed hydrolysis ([1]; 25 °C, 44 of the supplement): ~ 5×10^-11 M^-1s^-1

Compound: COP(=O)(O)O [methyl phosphate dianion, methyl phosphate]
- kuncat, uncatalyzed hydrolysis ([1]; 25 °C, 44 of the supplement): ~ 4×10^-22 M^-1s^-1
- kuncat, uncatalyzed hydrolysis [1]: ~4e-22 M⁻¹ s⁻¹

Compound: O=P(O)(O)O [Pi, inorganic phosphate]
- observed 32Pi uptake rate constant kobs (WT AP [2]): ≥ 0.03 s⁻¹
- Pi binding in the equilibrium-binding assay (WT Stp1): No significant Pi binding
- Ki [3]: 460 µM and 640 µM

Compound: O=P(O)(O)O [PO4^3-]
- trianion versus dianion differential affinity (S102G/R166S AP [4]): 4.3×10^5 fold
- trianion versus dianion differential affinity (S102G AP): 10^7 fold
- trianion versus dianion differential affinity (S102G AP; listed as PO): ~ 10^7 fold
- destabilization of Pi trianion binding by the Ser102 alkoxide (S102G AP; WT AP versus S102G AP): ≥ 10^8 fold

Compound: Nc1nc2c(ncn2[C@@H]2O[C@H](COP(=O)(O)OP(=O)(O)OP(=O)(O)O)[C@@H](O)[C@H]2O)c(=O)[nH]1 [GTP]
- kuncat, uncatalyzed hydrolysis ([1]; 25 °C, 44 of the supplement): ~ 5×10^-11 M^-1s^-1

Compound: [O]=[W](=[O])([O-])[O-] [tungstate]
- pH-independent dissociation constant for tungstate binding (R166S AP): 170±25 µM
- pH-independent dissociation constant for tungstate binding (S102G/R166S AP [5]): 890±90 µM
- pH-independent dissociation constant for tungstate dianion binding (WT AP [6]; equilibrium-binding assay via competition with 32Pi, dashed line): 2.06±0.48 µM
- Kd (WT AP [6]; read-out: dissociation constant for tungstate binding, pH 8.0, standard buffer): 0.9 ± 0.2 µM
- solution pKa [7]: ~4
- pH-independent dissociation constant for tungstate dianion binding (WT AP [8]; kinetic inhibition, solid line, data from ref 20): 0.57±0.11 µM
- Kd (WT AP [8]; read-out: dissociation constant for tungstate binding, pH 8.0): 1.1 µM
